Assays:
ISC-enriched organoids [1] = assay: Primary screen, 384-well 2.5-D organoid differentiation (ENR+CD, 6 days): basal lysozyme secretion (LYZ.NS); type: cell-based, murine; settings: primary screen; for Dose.FC.LYZ.NS: FC vs plate median; for Z.LYZ.NS: standard z score; for SSMD.LYZ.NS: strictly standardized mean difference
Source text: (§1) High-throughput screening.

ISC-enriched organoids [2] = assay: Primary screen, 384-well 2.5-D organoid differentiation (ENR+CD, 6 days): carbachol-induced lysozyme secretion (LYZ.S); type: cell-based, murine; settings: primary screen; for Dose.FC.LYZ.S: FC vs plate median; for Z.LYZ.S: standard z score; for SSMD.LYZ.S: strictly standardized mean difference
Source text: as §1

ISC-enriched organoids [3] = assay: Primary screen, 384-well 2.5-D organoid differentiation (ENR+CD, 6 days, Target Selective Inhibitor Library, vs whole-plate median): ATP (CellTiter-Glo 3D, CTG); settings: primary screen; for Dose.FC.CTG: FC vs plate median; for Z.CTG: standard z score; for SSMD.CTG: strictly standardized mean difference
[4] = 1st of the 4 dose lines of the treatment (dose not given)
[5] = 2nd of the 4 dose lines of the treatment (dose not given)
[6] = 3rd of the 4 dose lines of the treatment (dose not given)
[7] = 4th of the 4 dose lines of the treatment (dose not given)

Row | Structure (SMILES) | Dose.FC.LYZ.NS (ISC-enriched organoids [1]; Dose 0.08 uM) [log 2 fold change] | Z.LYZ.NS (ISC-enriched organoids [1]; Dose 0.08 uM) | Dose.FC.LYZ.NS (ISC-enriched organoids [1]; Dose 0.40 uM) [log 2 fold change] | Z.LYZ.NS (ISC-enriched organoids [1]; Dose 0.40 uM) | Dose.FC.LYZ.NS (ISC-enriched organoids [1]; Dose 2.00 uM) [log 2 fold change] | Z.LYZ.NS (ISC-enriched organoids [1]; Dose 2.00 uM) | Dose.FC.LYZ.NS (ISC-enriched organoids [1]; Dose 10.00 uM) [log 2 fold change] | Z.LYZ.NS (ISC-enriched organoids [1]; Dose 10.00 uM) | Dose.FC.LYZ.S (ISC-enriched organoids [2]; Dose 0.08 uM) [log 2 fold change] | Dose.FC.LYZ.S (ISC-enriched organoids [2]; Dose 0.40 uM) [log 2 fold change] | Dose.FC.LYZ.S (ISC-enriched organoids [2]; Dose 2.00 uM) [log 2 fold change] | Dose.FC.LYZ.S (ISC-enriched organoids [2]; Dose 10.00 uM) [log 2 fold change] | Dose.FC.CTG (ISC-enriched organoids [3]; Dose 0.08 uM) [log 2 fold change] | Z.CTG (ISC-enriched organoids [3]; Dose 0.08 uM) | Dose.FC.CTG (ISC-enriched organoids [3]; Dose 0.40 uM) [log 2 fold change] | Z.CTG (ISC-enriched organoids [3]; Dose 0.40 uM) | Dose.FC.CTG (ISC-enriched organoids [3]; Dose 2.00 uM) [log 2 fold change] | Z.CTG (ISC-enriched organoids [3]; Dose 2.00 uM) | Dose.FC.CTG (ISC-enriched organoids [3]; Dose 10.00 uM) [log 2 fold change] | Z.CTG (ISC-enriched organoids [3]; Dose 10.00 uM) | further results
1 | Cc1cc(SCc2sc(-c3ccc(C(F)(F)F)c(F)c3)nc2C)ccc1OCC(=O)O [GW0742] | 0.052 | 0.454 | 0.045 | 0.390 | 0.026 | 0.231 | −0.152 | −1.322 | 0.048 | 0.106 | 0.014 | −0.183 | −0.751 | −1.794 | −0.489 | −1.167 | −0.249 | −0.596 | −0.451 | −1.078 | 
2 | COc1ccc(COc2ccc(Cc3cnc(N)nc3N)cc2OC)cc1 [GW2580] | 0.006 | 0.056 | 0.014 | 0.118 | −0.060 | −0.525 | −0.018 | −0.158 | −0.013 | 0.020 | −0.060 | −0.026 | −0.042 | −0.101 | −0.284 | −0.678 | 0.029 | 0.068 | −0.038 | −0.091 | 
3 | Cl.O=C(O)Cc1cccc(OCCCN(Cc2cccc(C(F)(F)F)c2Cl)CC(c2ccccc2)c2ccccc2)c1 [GW3965 HCl] | 0.059 | 0.516 | 0.002 | 0.013 | 0.077 | 0.673 | −0.009 | −0.080 | 0.091 | 0.074 | 0.179 | −0.047 | 0.138 | 0.330 | 0.201 | 0.481 | 0.229 | 0.546 | −0.078 | −0.186 | 
4 | CC(C)c1onc(-c2c(Cl)cccc2Cl)c1COc1ccc(/C=C/c2cccc(C(=O)O)c2)c(Cl)c1 [GW4064] | 0.170 | 1.476 | −0.022 | −0.194 | 0.022 | 0.196 | −0.059 | −0.516 | 0.028 | 0.097 | 0.000 | −0.071 | −0.134 | −0.320 | 0.140 | 0.334 | −0.145 | −0.346 | −0.157 | −0.375 | 
5 | O=C(O)CCc1ccc(NCc2cccc(Oc3ccccc3)c2)cc1 [GW9508] | 0.075 | 0.650 | 0.019 | 0.169 | −0.011 | −0.092 | −0.040 | −0.350 | 0.067 | 0.049 | 0.000 | −0.045 | 0.063 | 0.151 | 0.174 | 0.417 | −0.001 | −0.003 | −0.059 | −0.140 | SSMD.LYZ.NS (ISC-enriched organoids [1]; [4]): 0.536; SSMD.LYZ.NS (ISC-enriched organoids [1]; [5]): 0.122; SSMD.LYZ.NS (ISC-enriched organoids [1]; [6]): −0.064; SSMD.LYZ.NS (ISC-enriched organoids [1]; [7]): −0.358; Z.LYZ.S (ISC-enriched organoids [2]; [4]): 0.434; Z.LYZ.S (ISC-enriched organoids [2]; [5]): 0.316; Z.LYZ.S (ISC-enriched organoids [2]; [6]): 0.003; Z.LYZ.S (ISC-enriched organoids [2]; [7]): −0.289; SSMD.LYZ.S (ISC-enriched organoids [2]; [4]): 0.329; SSMD.LYZ.S (ISC-enriched organoids [2]; [5]): 0.225; SSMD.LYZ.S (ISC-enriched organoids [2]; [6]): 0.002; SSMD.LYZ.S (ISC-enriched organoids [2]; [7]): −0.176; SSMD.CTG (ISC-enriched organoids [3]; [4]): 0.128; SSMD.CTG (ISC-enriched organoids [3]; [5]): 0.384; SSMD.CTG (ISC-enriched organoids [3]; [6]): −0.003; SSMD.CTG (ISC-enriched organoids [3]; [7]): −0.134
6 | O=C(Nc1ccccc1)c1cc([N+](=O)[O-])ccc1Cl [GW9662] | 0.035 | 0.305 | 0.098 | 0.852 | 0.046 | 0.400 | 0.030 | 0.264 | 0.036 | 0.080 | 0.093 | 0.020 | 0.115 | 0.274 | 0.041 | 0.098 | 0.212 | 0.508 | 0.133 | 0.318 | SSMD.LYZ.NS (ISC-enriched organoids [1]; [4]): 0.272; SSMD.LYZ.NS (ISC-enriched organoids [1]; [5]): 0.722; SSMD.LYZ.NS (ISC-enriched organoids [1]; [6]): 0.336; SSMD.LYZ.NS (ISC-enriched organoids [1]; [7]): 0.282; Z.LYZ.S (ISC-enriched organoids [2]; [4]): 0.235; Z.LYZ.S (ISC-enriched organoids [2]; [5]): 0.520; Z.LYZ.S (ISC-enriched organoids [2]; [6]): 0.599; Z.LYZ.S (ISC-enriched organoids [2]; [7]): 0.131; SSMD.LYZ.S (ISC-enriched organoids [2]; [4]): 0.218; SSMD.LYZ.S (ISC-enriched organoids [2]; [5]): 0.534; SSMD.LYZ.S (ISC-enriched organoids [2]; [6]): 0.571; SSMD.LYZ.S (ISC-enriched organoids [2]; [7]): 0.149; SSMD.CTG (ISC-enriched organoids [3]; [4]): 0.301; SSMD.CTG (ISC-enriched organoids [3]; [5]): 0.117; SSMD.CTG (ISC-enriched organoids [3]; [6]): 0.715; SSMD.CTG (ISC-enriched organoids [3]; [7]): 0.378

From patent publication US20230398130A1, “METHODS AND COMPOSITIONS FOR DIFFERENTIATING STEM CELLS” (Massachusetts Institute of Technology, priority 2020, published 2023)
